Molecules are shown by their SMILES.

Assay [1] has as its target T1, PPCDC Phosphopantothenoylcysteine decarboxylase (Homo sapiens, UniProt Q96CD2).
T1 construct: Cells were resuspended in cold PBS on ice and sonicated with a probe sonicator to achieve lysis; endogenous in cells
T1 sequence (Q96CD2 1-204): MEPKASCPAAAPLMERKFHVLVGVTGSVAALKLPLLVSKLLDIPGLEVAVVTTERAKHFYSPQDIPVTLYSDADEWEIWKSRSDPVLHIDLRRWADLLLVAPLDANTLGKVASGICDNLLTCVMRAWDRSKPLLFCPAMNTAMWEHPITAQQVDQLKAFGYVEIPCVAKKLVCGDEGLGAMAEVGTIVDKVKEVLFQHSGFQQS
Put plainly: Cysteine liganding, probe competition. It counts as binding. The method in brief: (§1)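 Lysates from probe-sonicated cells in PBS (5 mg/ml proteome) were exposed to compound for 1 hr at 25° C, then labelled with desthiobiotin iodoacetamide probe (10 mM stock) for 1 hr at 25° C. Probe-tagged peptides were streptavidin-enriched after trypsin digestion.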

The target in assay [2] is T2, FAM120A Constitutive coactivator of PPAR-gamma-like protei (Homo sapiens, UniProt Q9NZB2).
T2 construct: 200 μL of lysate containing 5 mg/ml proteome was treated with 2 μL of 100× compound stock; endogenous in cells
T2 sequence (Q9NZB2 1-1118): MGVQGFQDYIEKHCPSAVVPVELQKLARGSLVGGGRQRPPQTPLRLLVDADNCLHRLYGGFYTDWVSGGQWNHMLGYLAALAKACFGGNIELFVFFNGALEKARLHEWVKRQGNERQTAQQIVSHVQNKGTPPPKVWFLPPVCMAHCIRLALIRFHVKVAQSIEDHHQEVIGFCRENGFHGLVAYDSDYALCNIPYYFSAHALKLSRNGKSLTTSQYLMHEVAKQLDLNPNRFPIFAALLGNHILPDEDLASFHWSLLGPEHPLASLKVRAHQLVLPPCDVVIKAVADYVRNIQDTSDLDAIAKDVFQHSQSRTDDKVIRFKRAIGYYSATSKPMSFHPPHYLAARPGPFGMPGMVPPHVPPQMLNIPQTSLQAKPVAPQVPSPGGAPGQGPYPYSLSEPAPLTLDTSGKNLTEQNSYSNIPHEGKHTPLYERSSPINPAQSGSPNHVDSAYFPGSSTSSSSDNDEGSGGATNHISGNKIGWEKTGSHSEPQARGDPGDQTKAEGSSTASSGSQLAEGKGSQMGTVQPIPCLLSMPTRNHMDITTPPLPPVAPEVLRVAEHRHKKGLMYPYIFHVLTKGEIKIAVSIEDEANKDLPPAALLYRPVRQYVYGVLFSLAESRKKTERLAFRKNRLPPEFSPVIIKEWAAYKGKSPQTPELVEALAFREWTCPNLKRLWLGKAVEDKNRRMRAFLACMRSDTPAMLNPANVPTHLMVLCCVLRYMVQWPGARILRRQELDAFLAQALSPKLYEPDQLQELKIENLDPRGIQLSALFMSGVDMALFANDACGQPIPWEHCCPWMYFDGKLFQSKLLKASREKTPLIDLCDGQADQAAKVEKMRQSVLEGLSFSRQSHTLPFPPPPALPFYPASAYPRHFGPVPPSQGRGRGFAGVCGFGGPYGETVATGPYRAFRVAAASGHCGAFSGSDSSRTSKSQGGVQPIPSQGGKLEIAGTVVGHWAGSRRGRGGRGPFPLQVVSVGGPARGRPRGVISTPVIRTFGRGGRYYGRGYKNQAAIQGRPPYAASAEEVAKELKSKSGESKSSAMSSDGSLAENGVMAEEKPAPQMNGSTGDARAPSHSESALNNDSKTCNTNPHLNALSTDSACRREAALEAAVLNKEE
Put plainly: Cysteine liganding, probe competition. Type of assay: binding. In outline: as §1

As for `COc1ccc2c(c1)CCCN2C(=O)CCl` [KB02], the Liganded entry in assay [1] (PPCDC Res# 173, uniprot Q96CD2) is recorded as “YES”; in assay [2] (FAM120A Res# 919, uniprot Q9NZB2), “YES”.
As to `O=C(CCl)Nc1cc(C(F)(F)F)cc(C(F)(F)F)c1` [KBO3], in assay [1] (uniprot Q96CD2), the “100 Max” value was found to be 23.85, the 100 ave was 13.215, the “500 Max” value worked out at 71.73 and the 500 ave is reported as 71.73. Further, in assay [2] (uniprot Q9NZB2), the 100 ave is on record as −8.925, the “500 Max” value came out at 55.62 and the 500 ave is recorded as 55.62. The “100 Max” value in assay [2] (uniprot Q9NZB2, in % (unit assumed)) came to 13.09.
